Test results reported in US20260166029A1, “METHODS AND SYSTEMS FOR TREATING DISEASE USING AN ATR/CHK1 SIGNALING PATHWAY INHIBITOR” (Acrivon Therapeutics, Inc., priority 2022, published 2026).
Like-named read-outs stand apart in the source and are kept apart here.

Tests used:
[1] = tested on: A2780; test: Cell Titer Glo 2.0 viability, prexasertib alone or with gemcitabine, three days (Example 11); type: cell-based; details: Homo sapiens, A2780, 72 h
Procedure: (§1) The present Example provides experimental evidence that treatment with gemcitabine sensitizes human cancer cell lines to treatment with prexasertib. A panel of human cancer cell lines were treated with various concentrations of prexasertib (0.17, 0.51, 1.5, 4.6, 13.7, 31.2, 123.5, 370.4, 1111, 3333, and 10000 nM) alone or in combination with various low dose concentrations of gemcitabine (0.53 and 2.7 nM). The panel of cell lines included ovarian, endometrial, bladder, breast, and prostate cancer cell lines. Two ovarian cancer cell lines (OVCAR3 and OV90) were used to generate acquired prexasertib resistant cells. For both cell lines, the parental cells (OVCAR3-P and OV90-P) and acquired prexasertib resistant cells (OVCAR3-R and OV90-R) were tested. Additionally, the panel included three cell lines that are naïve resistant to prexasertib (SW780, T47D, and PC3). After three days of treatment, cell viability relative to DMSO control was assessed using Cell Titer Glo 2.0 (Promega).
(§2) To determine whether gemcitabine and prexasertib acts synergistically, additively, or potentially antagonistically, the panel of human cancer cell lines were treated with various concentrations of prexasertib (0.17, 0.51, 1.5, 4.6, 13.7, 31.2, 123.5, 370.4, 1111, 3333, and 10000 nM) in combination with various concentrations of gemcitabine (1, 3, 13, 67, 333, 1667, 8333 nM). After three days treatment, cell viability relative to DMSO control was assessed using Cell Titer Glo 2.0 (Promega). Drug combination effect was evaluated using SynergyFinder 2.0, see Ianevski et al., Nucleic Acids Res., gkaa216 (2020), and is presented in Table 15 as a Bliss synergy score for each cell line. Bliss synergy scores greater than 10 are indicative of a synergistic effect between prexasertib and gemcitabine, while scores between 10 and −10 are indicative of an additive effect and scores less than −10 are indicative of an antagonistic effect. […] Taken together, the results of this Example support use of a combination of prexasertib and gemcitabine (e.g., low doses of gemcitabine) for treatment of predicted non-responders to prexasertib treatment.

[2] = tested on: AN3CA; test: as above; type: cell-based; details: Homo sapiens, AN3-CA, 72 h
Procedure: as §1, §2

[3] = tested on: KLE; test: as above; type: cell-based; details: Homo sapiens, 72 h, read-out: Prexasertib Relative IC50
Procedure: as §1, §2

[4] = tested on: OV90-P; test: as above; type: cell-based; details: Homo sapiens, 72 h
Procedure: as §1, §2

[5] = tested on: OV90-R; test: as above; type: cell-based; details: Homo sapiens, 72 h, gemcitabine 0.53 nM, read-out: Prexasertib Relative IC50
Procedure: as §1, §2

[6] = tested on: OVCAR3-P; test: as above; type: cell-based; details: Homo sapiens, 72 h
Procedure: as §1, §2

[7] = tested on: OVCAR3-R; test: as above; type: cell-based; details: Homo sapiens, 72 h
Procedure: as §1, §2

[8] = tested on: PC3; test: as above; type: cell-based; details: Homo sapiens, PC-3, 72 h, gemcitabine 0.53 nM, read-out: Prexasertib Relative IC50
Procedure: as §1, §2

[9] = tested on: SW780; test: as above; type: cell-based; details: Homo sapiens, 72 h, gemcitabine 0.53 nM
Procedure: as §1, §2

[10] = tested on: T47D; test: as above; type: cell-based; details: Homo sapiens, 72 h, gemcitabine 0.53 nM, read-out: Prexasertib Relative IC50
Procedure: as §1, §2

[11] = tested on: TCCSUP; test: as above; type: cell-based; details: Homo sapiens, TCC-SUP, 72 h
Procedure: as §1, §2

[12] = tested on: ST1827 ovarian PDX tumor; test: Response to prexasertib treatment in ovarian PDX tumor model (Example 3); type: in vivo; design: key to Response type: CR = complete regression; PR = partial regression; S = stasis; G = growth
Excerpt: (§3) To evaluate whether the provided Response-Predictive Signature can predict response to prexasertib treatment, the predicted response for each PDX model was compared to an experimentally determined response to prexasertib treatment for the same PDX model. The experimentally measured response was quantified as follows: if a treated tumor reduced in size/volume, then the percent regression compared to an initial volume of a treated tumor was provided, if a treated tumor increased in size/volume, then a percent ratio of the treated tumor's growth was divided by control tumor (i.e., untreated tumor) growth (d[T/C]). Negative values for regression percentage indicate response to treatment with prexasertib, while positive values indicate continued growth and non-response to prexasertib treatment. The experimentally measured response was further categorized as complete regression (near −100% regression), partial regression (−50% to −100% regression), stasis (<20% median tumor growth to −50% regression), and growth (>20% median tumor growth).

[13] = tested on: ST182B ovarian PDX tumor; test: as above; type: in vivo; design: key to Response type: CR = complete regression; PR = partial regression; S = stasis; G = growth
Excerpt: as §3

[14] = tested on: ST2067 ovarian PDX tumor; test: as above; type: in vivo; design: key to Response type: CR = complete regression; PR = partial regression; S = stasis; G = growth
Excerpt: as §3

[15] = tested on: ST2249 ovarian PDX tumor; test: as above; type: in vivo; design: key to Response type: CR = complete regression; PR = partial regression; S = stasis; G = growth
Excerpt: as §3

[16] = tested on: ST260 ovarian PDX tumor; test: as above; type: in vivo; design: key to Response type: CR = complete regression; PR = partial regression; S = stasis; G = growth
Excerpt: as §3

[17] = gemcitabine 0 nM, read-out: Prexasertib Relative IC50
[18] = gemcitabine 0.53 nM, read-out: Prexasertib Absolute IC50
[19] = gemcitabine 0.53 nM, read-out: Prexasertib Relative IC50
[20] = gemcitabine 0 nM, read-out: Prexasertib Absolute IC50
[21] = gemcitabine 2.7 nM, read-out: Prexasertib Absolute IC50
[22] = gemcitabine 2.7 nM, read-out: Prexasertib Relative IC50

Compound `COc1cccc(OCCCN)c1-c1cc(Nc2cnc(C#N)cn2)n[nH]1` [prexasertib, 5-(5-(2-(3-aminopropoxy)-6-methoxyphenyl)-1H-pyrazol-3-ylamino)pyrazine-2-carbonitrile] has an IC50 [1, 17] of 8.5 nM, an IC50 [1, 18] of 0.5 nM and an IC50 [1, 19] of 0.3 nM. The IC50 [2, 20] was 2.2 nM, the IC50 [2, 17] was 1.5 nM and the IC50 [2, 18] was 0.3 nM. The IC50 [2, 19] was 0.2 nM, the IC50 ([3]; gemcitabine 0 nM) was 0.36 nM and the IC50 ([3]; gemcitabine 0.53 nM) was 0.02 nM. It also gave an IC50 [4, 20] of 49 nM, an IC50 [4, 17] of 0.5 nM and an IC50 [4, 18] of 0.93 nM. The IC50 [4, 19] was 0.14 nM, the IC50 [5] was 0.03 nM and the IC50 [6, 20] was 16 nM. It also gave an IC50 [6, 17] of 8 nM, an IC50 [6, 18] of 3 nM and an IC50 [6, 19] of 1.4 nM. It also gave an IC50 [6, 21] of 0.2 nM, an IC50 [6, 22] of 0.1 nM and an IC50 [7, 18] of 106 nM. For the same compound, the IC50 [7, 19] was 30 nM, the IC50 [7, 21] was 6.2 nM and the IC50 [7, 22] was 4 nM. It also gave an IC50 [8] of 0.15 nM, an IC50 ([9]; read-out: Prexasertib Absolute IC50) of 0.3 nM and an IC50 ([9]; read-out: Prexasertib Relative IC50) of 0.06 nM. For the same compound, the IC50 [10] was 0.22 nM, the IC50 [11, 20] was 2.8 nM and the IC50 [11, 17] was 1.4 nM. For the same compound, the IC50 [11, 18] was 0.08 nM, the IC50 [11, 19] was 0.04 nM and the Response type [12] was “CR”. For the same compound, the “Best d[T/C], or Regression” value ([12]; negative = regression) was −100%, the Response type [13] was “CR” and the “Best d[T/C], or Regression” value ([13]; negative = regression) was −100%. The Response type [14] was “CR”, the “Best d[T/C], or Regression” value ([14]; negative = regression) was −100% and the Response type [15] was “CR”. For the same compound, the “Best d[T/C], or Regression” value ([15]; negative = regression) was −100%, the Response type [16] was “CR” and the “Best d[T/C], or Regression” value ([16]; negative = regression) was −100%.
